Assay results as given in patent US7074190B2, “Non-invasive apparatus system for monitoring drug hepatoxicity and uses thereof” (priority 2002, dated 2006).

Legend:
[1] = tested on: adult dogs; assay: Blood test for drug-induced hepatotoxicity, dog experiment
Method: Two adult dogs weighing 12 and 15 kg were used. One (coded A) of them received 500 mg/kg of body weight of acetaminophen oral solution (dissolved in water); and the other one (coded B) received a higher concentration (1,200 mg/kg of body weight) of acetaminophen via subcutaneous injection. After Nembutal was injected and the respirator was put on, the hair on the front legs of the dogs was shaved and a blood pressure waveform sensor was inserted by operation. The waveform of artery blood pressure waveform on brachial position was continuously recorded and analyzed by a computer with a frequency of 100 data per minute. After surgery and before the drug was orally taken or injected, the blood pressure waveform of each dog was measured for two hours as the baseline. After the drug was orally taken or injected, the blood pressure waveform was continuously monitored for analyzing the hepatotoxicity induced by the drug, and blood samples were periodically taken from a tube inserted into the artery for determining the level of hepatotoxicuty.

[2] = tested on: adult dogs; assay: Artery blood pressure waveform analysis before and after taking the drug, dog experiment; assay type: in vivo; details: Code A dog, 500 mg/kg oral
Source text: The definition of parameter altered amount is: (the parameter value after taking the drug—the parameter value before taking the drug)/the parameter value before taking the drug *100%

[3] = Code A dog, 500 mg/kg oral, 1 hour after the drug was administered
[4] = Code A dog, 500 mg/kg oral, 6 hours after the drug was administered
[5] = Code A dog, 500 mg/kg oral, 12 hours after the drug was administered
[6] = Code B dog, 1,200 mg/kg subcutaneous injection, 1 hour after the drug was administered
[7] = Code B dog, 1,200 mg/kg subcutaneous injection, 6 hours after the drug was administered
[8] = Code B dog, 1,200 mg/kg subcutaneous injection, 12 hours after the drug was administered
[9] = before and after taking the drug (12 hours)

CC(=O)Nc1ccc(O)cc1 [acetaminophen]
ALT (SGPT) [1, 3]: 25 IU/leter | ASG (SGOT) [1, 3]: 35 IU/leter | Total biliflavin [1, 3]: 0.3 mg/dL | ALT (SGPT) [1, 4]: 23 IU/leter | ASG (SGOT) [1, 4]: 33 IU/leter | Total biliflavin [1, 4]: 0.2 mg/dL | ALT (SGPT) [1, 5]: 24 IU/leter | ASG (SGOT) [1, 5]: 45 IU/leter | Total biliflavin [1, 5]: 0.2 mg/dL | ALT (SGPT) [1, 6]: 33 IU/leter | ASG (SGOT) [1, 6]: 38 IU/leter | Total biliflavin [1, 6]: 0.2 mg/dL | ALT (SGPT) [1, 7]: 37 IU/leter | ASG (SGOT) [1, 7]: 198 IU/leter | Total biliflavin [1, 7]: 0.2 mg/dL | ALT (SGPT) [1, 8]: 47 IU/leter | ASG (SGOT) [1, 8]: 298 IU/leter | Total biliflavin [1, 8]: 0.2 mg/dL | biliflavin ([1]; Code B dog, 1,200 mg/kg subcutaneous injection, acute poisoning experiment): does not raise significantly | ALT ([1]; Code B dog, 1,200 mg/kg subcutaneous injection, after 12 hours): 47 IU/L | AST (SGOT) ([1]; Code B dog, 1,200 mg/kg subcutaneous injection, after 12 hours, baseline 41): 298 IU/liter | hepatotoxicity shown by blood test results ([1]; Code B dog, 1,200 mg/kg via subcutaneous injection): a certain level of hapatotoxicity | Oblique angle parameter D1 = (Bb-Aa)/ab ([2]; 12 hours after taking the drug): D1 = (Bb-Aa)/ab = 92 mmHg/sec. | Oblique angle parameter D2 = (Bb-Cc)/bc ([2]; 12 hours after taking the drug): D2 = (Bb-Cc)/bc = 350 mmHg/sec. | Oblique angle parameter D3 = (Dd-Cc)/cd ([2]; 12 hours after taking the drug): D3 = (Dd-Cc)/cd = 420 mmHg/sec. | Oblique angle parameter D4 = (Dd-Ee)/de ([2]; 12 hours after taking the drug): D4 = (Dd-Ee)/de = 110 mmHg/sec. | Oblique angle parameter D5 = D1 + D2 ([2]; 12 hours after taking the drug): D5 = D1 + D2 = 1270 mmHg/sec. | Oblique angle parameter D6 = D3 + D4 ([2]; 12 hours after taking the drug): D6 = D3 + D4 = 530 mmHg/sec. | Pressure parameter P1 = Aa ([2]; 12 hours after taking the drug): P1 = Aa = 149 mmHg | Pressure parameter P2 = Bb ([2]; 12 hours after taking the drug): P2 = Bb = 195 mmHg | Pressure parameter P3 = Cc ([2]; 12 hours after taking the drug): P3 = Cc = 156 mmHg | Pressure parameter P4 = Dd ([2]; 12 hours after taking the drug): P4 = Dd = 173 mmHg | Pressure parameter P5 = Ee ([2]; 12 hours after taking the drug): P5 = Ee = 149 mmHg | Ratio parameter RA1 = A6/A5 ([2]; 12 hours after taking the drug): RA1 = A6/A5 = 1.46 | Ratio parameter RA2 = A5/A7 ([2]; 12 hours after taking the drug): RA2 = A5/A7 = 0.41 | Ratio parameter RA3 = A6/A7 ([2]; 12 hours after taking the drug): RA3 = A6/A7 = 0.59 | Ratio parameter RP1 = Dd/Bb ([2]; 12 hours after taking the drug): RP1 = Dd/Bb = 0.89 | Ratio parameter RT1 = ab/ae ([2]; 12 hours after taking the drug): RT1 = ab/ae = 0.12 | Ratio parameter RT2 = ac/ae ([2]; 12 hours after taking the drug): RT2 = ac/ae = 0.40 | Ratio parameter RT3 = ad/ae ([2]; 12 hours after taking the drug): RT3 = ad/ae = 0.49 | Superficial measure parameter A1 = AabB ([2]; 12 hours after taking the drug): A1 = AabB = 9 sec. * mmHg | Superficial measure parameter A2 = BbcC ([2]; 12 hours after taking the drug): A2 = BbcC = 19 sec. * mmHg | Superficial measure parameter A3 = CcdD ([2]; 12 hours after taking the drug): A3 = CcdD = 7 sec. * mmHg | Superficial measure parameter A4 = DdeE ([2]; 12 hours after taking the drug): A4 = DdeE = 34 sec. * mmHg | Superficial measure parameter A5 = A1 + A2 ([2]; 12 hours after taking the drug): A5 = A1 + A2 = 28 sec. * mmHg | Superficial measure parameter A6 = A3 + A4 ([2]; 12 hours after taking the drug): A6 = A3 + A4 = 41 sec. * mmHg | Superficial measure parameter A7 = A5 + A6 ([2]; 12 hours after taking the drug): A7 = A5 + A6 = 69 sec. * mmHg | Time parameter T1 = ab ([2]; 12 hours after taking the drug): T1 = ab = 0.05 second | Time parameter T2 = bc ([2]; 12 hours after taking the drug): T2 = bc = 0.11 second | Time parameter T3 = cd ([2]; 12 hours after taking the drug): T3 = cd = 0.04 second | Time parameter T4 = de ([2]; 12 hours after taking the drug): T4 = de = 0.21 second | Time parameter T5 = ae ([2]; 12 hours after taking the drug): T5 = ae = 0.41 second | Pressure parameter Altered amount P1 = Aa [2, 9]: P1 = Aa = 0.7 mmHg | Pressure parameter Altered amount P2 = Bb [2, 9]: P2 = Bb = 1.0 mmHg | Pressure parameter Altered amount P3 = Cc [2, 9]: P3 = Cc = 1.3 mmHg | Pressure parameter Altered amount P4 = Dd [2, 9]: P4 = Dd = 2.4 mmHg | Pressure parameter Altered amount P5 = Ee [2, 9]: P5 = Ee = 0.7 mmHg | Ratio parameter Altered amount RA1 = A6/A5 [2, 9]: RA1 = A6/A5 = 12.3 | Ratio parameter Altered amount RA2 = A5/A7 [2, 9]: RA2 = A5/A7 = −6.8 | Ratio parameter Altered amount RA3 = A6/A7 [2, 9]: RA3 = A6/A7 = 5.3 | Ratio parameter Altered amount RP1 = Dd/Bb [2, 9]: RP1 = Dd/Bb = 9.2 | Ratio parameter Altered amount RT1 = ab/ae [2, 9]: RT1 = ab/ae = −25.0 | Ratio parameter Altered amount RT2 = ac/ae [2, 9]: RT2 = ac/ae = −5.0 | Ratio parameter Altered amount RT3 = ad/ae [2, 9]: RT3 = ad/ae = −11.0 | Superficial measure parameter Altered amount A1 = AabB [2, 9]: Al = AabB = −10.0 sec. * mmHg | Superficial measure parameter Altered amount A2 = BbcC [2, 9]: A2 = BbcC = 11.8 sec. * mmHg | Superficial measure parameter Altered amount A3 = CcdD [2, 9]: A3 = CcdD = −12.5 sec. * mmHg | Superficial measure parameter Altered amount A4 = DdeE [2, 9]: A4 = DdeE = 25.9 sec. * mmHg | Superficial measure parameter Altered amount A5 = A1 + A2 [2, 9]: A5 = A1 + A2 = 3.7 sec. * mmHg | Superficial measure parameter Altered amount A6 = A3 + A4 [2, 9]: A6 = A3 + A4 = 17.1 sec. * mmHg | Superficial measure parameter Altered amount A7 = A5 + A6 [2, 9]: A7 = A5 + A6 = 11.3 sec. * mmHg | Time parameter Altered Amount T2 = bc [2, 9]: T2 = bc = 10.0 second
